Laboratory results: PubChem BioAssay AID330 (DTP/NCI, 2004)
Several values for one entry are separate records, joined by “and”; a condition that tells them apart may be missing. Identical values can stand only once. Inconclusive results and toxic doses are left out.

System: P388 leukemia ip, CD2F1 mice, survival T/C
Test: NCI In Vivo Anticancer Drug Screen. Data for tumor model P388 Leukemia (intraperitoneal) in CD2F1 (CDF1) mice
Settings: endpoint: median survival time, higher = longer survival
How it was run: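 Mice carrying the transplanted tumor received test compound or vehicle. Survival was recorded in each group, and the value is the treated-group measurement divided by that of the vehicle-treated control group.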

[1] = dose: 25.0 mg/kg/injection, schedule: Q01DX005 (ip), vehicle: saline with Tween-80
[2] = dose: 50.0 mg/kg/injection, schedule: Q01DX005 (ip), vehicle: saline with Tween-80
[3] = dose: 100.0 mg/kg/injection, schedule: Q04DX003 (ip), vehicle: saline with Tween-80
[4] = dose: 50.0 mg/kg/injection, schedule: Q01DX009 (ip), vehicle: Klucel (hydroxypropylcellulose) (HPC)
[5] = dose: 100.0 mg/kg/injection, schedule: Q01DX009 (ip), vehicle: Klucel (hydroxypropylcellulose) (HPC)
[6] = dose: 200.0 mg/kg/injection, schedule: Q01DX009 (ip), vehicle: Klucel (hydroxypropylcellulose) (HPC)
[7] = dose: 12.5 mg/kg/injection, schedule: Q01DX005 (ip), vehicle: saline with Tween-80
[8] = dose: 25.0 mg/kg/injection, schedule: Q01DX001 (ip), vehicle: saline with Tween-80
[9] = dose: 50.0 mg/kg/injection, schedule: Q01DX001 (ip), vehicle: saline with Tween-80
[10] = dose: 100.0 mg/kg/injection, schedule: Q01DX001 (ip), vehicle: saline with Tween-80

O=Cc1ccc(N2OC(c3ccc([N+](=O)[O-])cc3)C(c3ccc([N+](=O)[O-])cc3)C2c2ccc([N+](=O)[O-])cc2)cc1 (stereo not given)
T/C (dose: 50.0 mg/kg/injection, schedule: Q01DX009 (ip), vehicle: acetone): 96 % of control | T/C (dose: 100.0 mg/kg/injection, schedule: Q01DX009 (ip), vehicle: acetone): 93 % of control | T/C (dose: 200.0 mg/kg/injection, schedule: Q01DX009 (ip), vehicle: acetone): 100 % of control

COc1ccc(CSC(=S)Nc2cc(C)c(C)cc2[N+](=O)[O-])cc1
T/C (dose: 50.0 mg/kg/injection, schedule: Q01DX009 (ip), vehicle: suspension in saline): 93 % of control | T/C (dose: 100.0 mg/kg/injection, schedule: Q01DX009 (ip), vehicle: suspension in saline): 97 % of control | T/C (dose: 200.0 mg/kg/injection, schedule: Q01DX009 (ip), vehicle: suspension in saline): 97 % of control

CCN(CC)CCOc1ccccc1C(C)=O
T/C [1]: 93 % of control | T/C [2]: 99 % of control

COC(=O)C1(C)C(OC(C)=O)CC2C3C(CC4CC(OC(C)=O)CCC42C)OC(=O)CC31 (stereo not given)
T/C (dose: 0.25 mg/kg/injection, schedule: Q01DX009 (ip), vehicle: distilled water + Tween-80): 99 % of control | T/C (dose: 0.5 mg/kg/injection, schedule: Q01DX009 (ip), vehicle: distilled water + Tween-80): 101 % of control | T/C (dose: 1.0 mg/kg/injection, schedule: Q01DX009 (ip), vehicle: distilled water + Tween-80): 102 % of control | T/C (dose: 2.0 mg/kg/injection, schedule: Q01DX009 (ip), vehicle: distilled water + Tween-80): 104 % of control | T/C (dose: 4.0 mg/kg/injection, schedule: Q01DX009 (ip), vehicle: distilled water + Tween-80): 100 % of control and 104 % of control | T/C (dose: 8.0 mg/kg/injection, schedule: Q01DX009 (ip), vehicle: distilled water + Tween-80): 106 % of control and 111 % of control | T/C (dose: 16.0 mg/kg/injection, schedule: Q01DX009 (ip), vehicle: distilled water + Tween-80): 94 % of control | T/C (dose: 32.0 mg/kg/injection, schedule: Q01DX009 (ip), vehicle: distilled water + Tween-80): 87 % of control | T/C (dose: 64.0 mg/kg/injection, schedule: Q01DX009 (ip), vehicle: distilled water + Tween-80): 100 % of control

COc1cc(C=NC2CCCCC2)c(Br)c(OC)c1OC
T/C (dose: 100.0 mg/kg/injection, schedule: Q01DX001 (ip), vehicle: Klucel (hydroxypropylcellulose) (HPC)): 107 % of control | T/C (dose: 200.0 mg/kg/injection, schedule: Q01DX001 (ip), vehicle: Klucel (hydroxypropylcellulose) (HPC)): 107 % of control | T/C (dose: 400.0 mg/kg/injection, schedule: Q01DX001 (ip), vehicle: Klucel (hydroxypropylcellulose) (HPC)): 107 % of control

CCCCCCC(=O)NC1=C(N2CC2)C(=O)C(NC(=O)CCCCCC)=C(N2CC2)C1=O
T/C (dose: 12.5 mg/kg/injection, schedule: Q04DX003 (ip), vehicle: saline with Tween-80): 100 % of control | T/C (dose: 25.0 mg/kg/injection, schedule: Q04DX003 (ip), vehicle: saline with Tween-80): 109 % of control | T/C (dose: 100.0 mg/kg/injection, schedule: Q01DX009 (ip), vehicle: saline with Tween-80): 245 % of control | T/C [3]: 159 % of control | T/C (dose: 150.0 mg/kg/injection, schedule: Q04DX003 (ip), vehicle: saline with Tween-80): 195 % of control | T/C (dose: 200.0 mg/kg/injection, schedule: Q01DX009 (ip), vehicle: saline with Tween-80): 120 % of control

CCCNC(=NC)c1ccc(NC(=O)c2ccc(C(=O)Nc3ccc(C(=NC)NCCC)cc3)cc2)cc1
T/C (dose: 5.2 mg/kg/injection, schedule: Q01DX010 (ip), vehicle: saline): 109 % of control | T/C (dose: 18.0 mg/kg/injection, schedule: Q01DX010 (ip), vehicle: saline): 118 % of control

CC1(C)N=C(N)N=C(N)N1c1cccc(CCCCc2ccc(Cl)c(S(=O)(=O)F)c2)c1
T/C (dose: 9.33 mg/kg/injection, schedule: Q01DX009 (ip), vehicle: saline): 118 % of control

COC(=O)/C=C1\C(=O)OC(C)(C)C1(C)C
T/C [4]: 111 % of control | T/C [5]: 100 % of control | T/C [6]: 103 % of control

CC1CC(OC(=O)CSC#N)CC(C)(C)C1 (stereo not given)
T/C [7]: 104 % of control | T/C [1]: 101 % of control | T/C [2]: 101 % of control and 108 % of control

CC1(C)CC(=O)C=C(Nc2ccc(O)cc2)C1
T/C (dose: 6.25 mg/kg/injection, schedule: Q01DX005 (ip), vehicle: saline with Tween-80): 100 % of control | T/C [7]: 100 % of control | T/C [1]: 96 % of control | T/C (dose: 100.0 mg/kg/injection, schedule: Q01DX005 (ip), vehicle: saline with Tween-80): 86 % of control

CC1(C)OC2CC(=O)OCC23C1CC(=O)C1(C)C3CCC2(C)C(c3ccoc3)OC(=O)C3OC321 (stereo not given)
T/C (dose: 50.0 mg/kg/injection, schedule: Q01DX010 (ip), vehicle: saline): 100 % of control | T/C (dose: 100.0 mg/kg/injection, schedule: Q01DX010 (ip), vehicle: saline): 95 % of control | T/C (dose: 200.0 mg/kg/injection, schedule: Q01DX010 (ip), vehicle: saline): 95 % of control

Cc1cc2ncc(-c3ccccc3)nc2cc1C
T/C [8]: 100 % of control | T/C [9]: 100 % of control | T/C [10]: 89 % of control and 90 % of control

C1CCC2C(C1)CCC1CCCCC12 (stereo not given)
T/C [8]: 96 % of control | T/C [9]: 113 % of control | T/C [10]: 100 % of control and 114 % of control | T/C (dose: 200.0 mg/kg/injection, schedule: Q01DX001 (ip), vehicle: saline with Tween-80): 110 % of control

[N-]=[N+]=NC1(c2ccccc2)C(=O)c2ccccc2C1=O
T/C [3]: 94 % of control | T/C (dose: 200.0 mg/kg/injection, schedule: Q04DX003 (ip), vehicle: saline with Tween-80): 105 % of control

S=c1[nH]ccn1-c1ccccc1
T/C (dose: 25.0 mg/kg/injection, schedule: Q01DX009 (ip), vehicle: Klucel (hydroxypropylcellulose) (HPC)): 99 % of control | T/C [4]: 104 % of control | T/C [5]: 109 % of control | T/C [6]: 95 % of control

N#Cc1c(NC(=O)CCC(=O)O)ccc2ccccc12
T/C (dose: 50.0 mg/kg/injection, schedule: Q01DX009 (ip), vehicle: saline): 99 % of control | T/C (dose: 100.0 mg/kg/injection, schedule: Q01DX009 (ip), vehicle: saline): 114 % of control | T/C (dose: 200.0 mg/kg/injection, schedule: Q01DX009 (ip), vehicle: saline): 114 % of control

CS(=O)(=O)C(c1nc2nnc(N)n2[nH]c1=O)c1nc2nnc(N)n2[nH]c1=O
T/C (dose: 60.0 mg/kg/injection, schedule: Q01DX005 (ip), vehicle: saline): 99 % of control | T/C (dose: 120.0 mg/kg/injection, schedule: Q01DX005 (ip), vehicle: saline): 105 % of control | T/C (dose: 240.0 mg/kg/injection, schedule: Q01DX005 (ip), vehicle: saline): 105 % of control

C1CNC2NCCNC2N1 (stereo not given)
T/C (dose: 25.0 mg/kg/injection, schedule: Q01DX009 (ip), vehicle: saline): 118 % of control

Cc1cc(NS(=O)(=O)c2ccc(N=Nc3c(O)n(-c4ccccc4)n(-c4ccccc4)c3=O)cc2)no1
T/C [4]: 102 % of control | T/C [5]: 100 % of control | T/C [6]: 92 % of control

CN1C(C)(C)CC(O)(C#N)CC1(C)C
T/C (dose: 50.0 mg/kg/injection, schedule: Q01DX005 (ip), vehicle: saline): 100 % of control | T/C (dose: 100.0 mg/kg/injection, schedule: Q01DX005 (ip), vehicle: saline): 98 % of control | T/C (dose: 200.0 mg/kg/injection, schedule: Q01DX005 (ip), vehicle: saline): 103 % of control

N#Cc1c(-c2ccc(F)cc2)c(-c2ccc(F)cc2)nn(CCO)c1=O
T/C (dose: 12.5 mg/kg/injection, schedule: Q04DX002 (ip), vehicle: distilled water + Tween-80): 98 % of control | T/C (dose: 25.0 mg/kg/injection, schedule: Q04DX002 (ip), vehicle: distilled water + Tween-80): 101 % of control and 108 % of control and 112 % of control | T/C (dose: 50.0 mg/kg/injection, schedule: Q01DX005 (ip), vehicle: distilled water + Tween-80): 117 % of control | T/C (dose: 100.0 mg/kg/injection, schedule: Q04DX002 (ip), vehicle: distilled water + Tween-80): 121 % of control and 166 % of control and 201 % of control | T/C (dose: 200.0 mg/kg/injection, schedule: Q01DX005 (ip), vehicle: distilled water + Tween-80): 155 % of control | T/C (dose: 200.0 mg/kg/injection, schedule: Q04DX002 (ip), vehicle: distilled water + Tween-80): 150 % of control | T/C (dose: 400.0 mg/kg/injection, schedule: Q01DX005 (ip), vehicle: distilled water + Tween-80): 238 % of control

COc1ccc2c(N=[N+]=[N-])cc(C)nc2c1
T/C (dose: 30.0 mg/kg/injection, schedule: Q01DX005 (ip), vehicle: saline with Tween-80): 97 % of control | T/C (dose: 60.0 mg/kg/injection, schedule: Q01DX005 (ip), vehicle: saline with Tween-80): 100 % of control and 91 % of control

CC(=O)N/N=C/C=C/c1ccccc1
T/C (dose: 3.13 mg/kg/injection, schedule: Q01DX009 (ip), vehicle: saline with Tween-80): 117 % of control | T/C (dose: 6.25 mg/kg/injection, schedule: Q01DX009 (ip), vehicle: saline with Tween-80): 106 % of control | T/C (dose: 12.5 mg/kg/injection, schedule: Q01DX009 (ip), vehicle: saline with Tween-80): 104 % of control
